pIC50: −log10 of the molar value.

This assay deals with T1, G1 APOL1 (Homo sapiens, UniProt O14791, I384M/S342G).
T1 construct: expressed in transfected cells
T1 sequence (O14791 28-398 S342G/I384M): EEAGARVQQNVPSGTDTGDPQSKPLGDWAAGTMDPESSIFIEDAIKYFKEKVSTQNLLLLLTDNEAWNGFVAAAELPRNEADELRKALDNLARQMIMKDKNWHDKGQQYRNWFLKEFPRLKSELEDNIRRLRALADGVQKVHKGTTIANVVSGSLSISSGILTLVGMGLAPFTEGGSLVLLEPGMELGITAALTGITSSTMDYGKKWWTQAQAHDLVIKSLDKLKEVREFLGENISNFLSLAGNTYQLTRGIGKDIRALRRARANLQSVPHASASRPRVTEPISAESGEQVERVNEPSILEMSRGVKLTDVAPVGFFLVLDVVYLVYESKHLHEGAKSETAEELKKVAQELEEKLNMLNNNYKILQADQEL
As to the kind of experiment: Acute APOL1 Thallium Assay with inducible stable clones of HEK 293 cells. The note with it: HEK 293 T-Rex cells expressing G1 APOL1; read-out: Thallium Assay (IC50). Type of assay: cell-based. The procedure, abridged: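 Tetracycline-inducible HEK293 T-Rex clone G1 DC3.25 expressing G1 APOL1, plated at 26000 cells/well in Opti-MEM with tetracycline induction. APOL1 pore activity read on FLIPR as fluorescence increase from Tl+ influx into cells loaded with a Tl+-sensitive AM-ester dye.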
The term pIC50 denotes the IC50 on a negative log10 scale, so that one unit is a factor of ten. For the molecule `CNC(=O)C(C)NC(=O)[C@H]1C[C@H](c2c(-c3ccc(F)cc3)[nH]c3c(F)cc(F)cc32)C1` (mixture of isomers) [Compound 9], the negative-log IC50 (pIC50) is 6.00 to 6.60.

As for `CCN(C(=O)[C@H]1C[C@H](c2c(-c3ccc(F)cc3)[nH]c3c(F)cc(F)cc32)C1)C(C)CO` (mixture of isomers) [Compound 111], the pIC50 was less than 6.00.

Turning to `CC(CO)N1CCN(C(=O)[C@H]2C[C@H](c3c(-c4ccc(F)cc4)[nH]c4c(F)cc(F)cc43)C2)CC1` (mixture of isomers) [Compound 122], the pIC50 was less than 6.00.

On to `CC(O)CN(CCO)C(=O)[C@H]1C[C@H](c2c(-c3ccc(F)cc3)[nH]c3c(F)cc(F)cc32)C1` (mixture of isomers) [Compound 129], for which the negative-log IC50 (pIC50) was 6.00 to 6.60.

Consider `O=C(NC1CC(O)C1)[C@H]1C[C@H](c2c(-c3ccc(F)cc3)[nH]c3c(F)cc(F)cc32)C1` (stereo partly shown) [Compound 5], for which the negative logarithm of the IC50 (pIC50) is 6.00 to 6.60.

In the case of `O=C(NC1(CO)CCC1)[C@H]1C[C@H](c2c(-c3ccc(F)cc3)[nH]c3c(F)cc(F)cc32)C1` [Compound 6], the negative-log IC50 (pIC50) was greater than 6.60.

Turning to `CN1CCC(NC(=O)[C@H]2C[C@H](c3c(-c4ccc(F)cc4)[nH]c4c(F)cc(F)cc43)C2)C1=O` (stereo partly shown) [Compound 7], the pIC50 was 6.00 to 6.60.

Take `O=C(NC(CO)CO)[C@H]1C[C@H](c2c(-c3ccc(F)cc3)[nH]c3c(F)cc(F)cc32)C1` [Compound 8]: the pIC50 is greater than 6.60.

For the molecule `O=C(O)CNC(=O)[C@H]1C[C@H](c2c(-c3ccc(F)cc3)[nH]c3c(F)cc(F)cc32)C1` [Compound 10], the negative logarithm of the IC50 (pIC50) is less than 6.00.

For `CC(C)(NC(=O)[C@H]1C[C@H](c2c(-c3ccc(F)cc3)[nH]c3c(F)cc(F)cc32)C1)C(N)=O` [Compound 11], the negative-log IC50 (pIC50) is 6.00 to 6.60.

For `CO[C@H]1CCN(C(=O)[C@H]2C[C@H](c3c(-c4ccc(F)cc4)[nH]c4c(F)cc(F)cc43)C2)C1` [Compound 95], the pIC50 is less than 6.00.

Consider `O=C([C@H]1C[C@H](c2c(-c3ccc(F)cc3)[nH]c3c(F)cc(F)cc32)C1)N1CC(n2cccn2)C1` [Compound 96], for which the pIC50 was less than 6.00.

Consider `O=C([C@H]1C[C@H](c2c(-c3ccc(F)cc3)[nH]c3c(F)cc(F)cc32)C1)N1C2CCC(C2)C1CO` (stereo partly shown) [Compound 97], for which the pIC50 is less than 6.00.

For the molecule `O=C([C@H]1C[C@H](c2c(-c3ccc(F)cc3)[nH]c3c(F)cc(F)cc32)C1)N1C[C@H]2C[C@@]2(CO)C1` [Compound 98], the negative-log IC50 (pIC50) is less than 6.00.

`O=C([C@H]1C[C@H](c2c(-c3ccc(F)cc3)[nH]c3c(F)cc(F)cc32)C1)N1C[C@@H]2[C@@H](CO)[C@@H]2C1` [Compound 99]: the negative-log IC50 (pIC50) was less than 6.00.

For the molecule `O=C([C@H]1C[C@H](c2c(-c3ccc(F)cc3)[nH]c3c(F)cc(F)cc32)C1)N1CC[C@H](CO)[C@H](O)C1` [Compound 100], the pIC50 was less than 6.00.

Regarding `O=C([C@H]1C[C@H](c2c(-c3ccc(F)cc3)[nH]c3c(F)cc(F)cc32)C1)N1CCCC1CCO` (stereo partly shown) [Compound 101], the pIC50 is less than 6.00.

Consider `CC1(C)CN(C(=O)[C@H]2C[C@H](c3c(-c4ccc(F)cc4)[nH]c4c(F)cc(F)cc43)C2)CC1O` (stereo partly shown) [Compound 102], for which the pIC50 was less than 6.00.

For `O=C([C@H]1C[C@H](c2c(-c3ccc(F)cc3)[nH]c3c(F)cc(F)cc32)C1)N1CCC2(COC2)C1` [Compound 103], the negative logarithm of the IC50 (pIC50) was less than 6.00.

Turning to `O=C(NCCCO)[C@H]1C[C@H](c2c(-c3ccc(F)cc3)[nH]c3c(F)cc(F)cc32)C1` [Compound 104], the negative logarithm of the IC50 (pIC50) is 6.00 to 6.60.

With `O=C([C@H]1C[C@H](c2c(-c3ccc(F)cc3)[nH]c3c(F)cc(F)cc32)C1)N1CCC[C@H](O)C1` [Compound 105], the pIC50 was less than 6.00.

Regarding `O=C([C@H]1C[C@H](c2c(-c3ccc(F)cc3)[nH]c3c(F)cc(F)cc32)C1)N1CC(O)C(N2CCOCC2)C1` (stereo partly shown) [Compound 106], the negative logarithm of the IC50 (pIC50) is less than 6.00.

As to `O=C([C@H]1C[C@H](c2c(-c3ccc(F)cc3)[nH]c3c(F)cc(F)cc32)C1)N1CCCC[C@@H]1CO` [Compound 107], the negative-log IC50 (pIC50) is less than 6.00.

`O=C([C@H]1C[C@H](c2c(-c3ccc(F)cc3)[nH]c3c(F)cc(F)cc32)C1)N1CCC(CO)(CO)CC1` [Compound 108]: the negative-log IC50 (pIC50) was less than 6.00.

Regarding `O=C([C@H]1C[C@H](c2c(-c3ccc(F)cc3)[nH]c3c(F)cc(F)cc32)C1)N1CCC[C@@H](CO)C1` [Compound 109], the pIC50 was less than 6.00.

Take `CN(C)C[C@@H]1CCN(C(=O)[C@H]2C[C@H](c3c(-c4ccc(F)cc4)[nH]c4c(F)cc(F)cc43)C2)C[C@H]1O` [Compound 110]: the negative logarithm of the IC50 (pIC50) is less than 6.00.

For the molecule `CCC1(O)CN(C(=O)[C@H]2C[C@H](c3c(-c4ccc(F)cc4)[nH]c4c(F)cc(F)cc43)C2)C1` [Compound 112], the pIC50 was less than 6.00.

`O=C([C@H]1C[C@H](c2c(-c3ccc(F)cc3)[nH]c3c(F)cc(F)cc32)C1)N1CCOCC1CCO` (stereo partly shown) [Compound 113]: the pIC50 was less than 6.00.

On to `CC1(C)CN(C(=O)[C@H]2C[C@H](c3c(-c4ccc(F)cc4)[nH]c4c(F)cc(F)cc43)C2)CCC1O` (stereo partly shown) [Compound 114], for which the pIC50 was less than 6.00.

On to `O=C([C@H]1C[C@H](c2c(-c3ccc(F)cc3)[nH]c3c(F)cc(F)cc32)C1)N1CCOC(O)C1` (stereo partly shown) [Compound 115], for which the pIC50 is 6.00 to 6.60.

Take `C[C@H]1CN(C(=O)[C@H]2C[C@H](c3c(-c4ccc(F)cc4)[nH]c4c(F)cc(F)cc43)C2)CC[C@@H]1O` [Compound 116]: the pIC50 is less than 6.00.

Turning to `O=C([C@H]1C[C@H](c2c(-c3ccc(F)cc3)[nH]c3c(F)cc(F)cc32)C1)N(CCO)CCCO` [Compound 117], the negative-log IC50 (pIC50) is less than 6.00.

`O=C([C@H]1C[C@H](c2c(-c3ccc(F)cc3)[nH]c3c(F)cc(F)cc32)C1)N1CCO[C@H](CO)C1` [Compound 118]: the pIC50 was less than 6.00.

`CCC(O)(CCCO)CNC(=O)[C@H]1C[C@H](c2c(-c3ccc(F)cc3)[nH]c3c(F)cc(F)cc32)C1` (stereo partly shown) [Compound 119]: the negative logarithm of the IC50 (pIC50) was less than 6.00.

`CN(CC1(CO)CCOCC1)C(=O)[C@H]1C[C@H](c2c(-c3ccc(F)cc3)[nH]c3c(F)cc(F)cc32)C1` [Compound 120]: the negative-log IC50 (pIC50) is less than 6.00.

For `O=C([C@H]1C[C@H](c2c(-c3ccc(F)cc3)[nH]c3c(F)cc(F)cc32)C1)N(CCOCCO)C1CCC1` [Compound 121], the pIC50 is less than 6.00.

Consider `CC(C)N(CCO)C(=O)[C@H]1C[C@H](c2c(-c3ccc(F)cc3)[nH]c3c(F)cc(F)cc32)C1` [Compound 123], for which the negative-log IC50 (pIC50) is less than 6.00.

With `CCN(CCO)C(=O)[C@H]1C[C@H](c2c(-c3ccc(F)cc3)[nH]c3c(F)cc(F)cc32)C1` [Compound 124], the pIC50 was 6.00 to 6.60.

For `O=C(NCCOCCO)[C@H]1C[C@H](c2c(-c3ccc(F)cc3)[nH]c3c(F)cc(F)cc32)C1` [Compound 125], the negative-log IC50 (pIC50) is greater than 6.60.

Regarding `O=C([C@H]1C[C@H](c2c(-c3ccc(F)cc3)[nH]c3c(F)cc(F)cc32)C1)N1CCN(CCO)CC1` [Compound 126], the pIC50 is less than 6.00.

On to `O=C([C@H]1C[C@H](c2c(-c3ccc(F)cc3)[nH]c3c(F)cc(F)cc32)C1)N1CCCC(CCO)C1` (stereo partly shown) [Compound 128], for which the pIC50 is less than 6.00.

In the case of `CC1(C)CN(C(=O)[C@H]2C[C@H](c3c(-c4ccc(F)cc4)[nH]c4c(F)cc(F)cc43)C2)CCN1C(=O)[C@H]1C[C@@](C)(O)C1` [Compound 130], the pIC50 was less than 6.00.

For `CC(O)C1CCCN(C(=O)[C@H]2C[C@H](c3c(-c4ccc(F)cc4)[nH]c4c(F)cc(F)cc43)C2)C1` (stereo partly shown) [Compound 131], the pIC50 is less than 6.00.

Values taken from patent publication US12116343B2, “Inhibitors of APOL1 and methods of using same” (Vertex Pharmaceuticals Incorporated, priority 2020, dated 2024).
